Test results: publication PMC6984391, “Anion carriers as potential treatments for cystic fibrosis: transport in cystic fibrosis cells, and additivity to channel-targeting drugs” (Chemical Science, 2019)

Experiments:
Format in all cases: cell-based
[1] = target: T1, wild-type human CFTR (Homo sapiens, UniProt P13569); experiment: CFTR-mediated anion transport in WT-CFTR-YFP-FRT cells; conditions: forskolin 10 μM; CFTRinh-172 10 μM
T1 construct: expressed in transfected cells
Description: Next, we sought to learn whether the activities of 11, 12, 15, and 19 are additive to that of CFTR. For these studies, we used FRT cells co-expressing wild-type human CFTR and YFP-H148Q/I152L (WT-CFTR-YFP-FRT cells).[28] […] This latter effect is difficult to explain and merits further investigation. […]
the PBS bathing cells 10 minutes prior to PBS iodide addition, whereas UTP was added to cells with the PBS iodide solution. Fluorescence was measured for 14 seconds; 2 seconds before and 12 seconds after injection of 110 µl PBS iodide solution (137 mM Cl- replaced by I-) into each well (to obtain a final concentration of I- of 100 mM).
We expressed cell fluorescence values (F) relative to the fluorescence value immediately before I- injection (F0), excluding the initial decrease, which likely represents the quenching of extracellular YFP released from cells and signal reduction accompanying the increase in solution volume bathing cells. To quantify anion transport by test anionophores, we determined the initial slope of the fluorescence decay following I - addition by fitting first order exponential functions to the last 12 seconds of each fluorescence recording. […]
fluorescence microscopy as described previously.10 In brief, YFP-FRT cells were washed 3x with PBS before transfer to a perfusion chamber mounted on the stage of a Leica DM IRB microscope. […]

[2] = target: T2, F508del-CFTR (Homo sapiens, UniProt P13569, DEL508-508); experiment: F508del-CFTR-mediated anion transport in F508del-CFTR-YFP-FRT cells; conditions: forskolin 10 μM, cells grown at 37 °C
T2 construct: expressed in transfected cells
Description: To learn whether anionophores are additive to small molecules that rescue disease-causing CFTR variants, we used FRT cells co-expressing F508del-CFTR, the predominant CF mutation and YFP-H148Q/I152L (F508del-CFTR-YFP-FRT cells).[28] To rescue the plasma membrane expression of F508del-CFTR, we used low temperature or the clinically-licensed CFTR corrector lumacaftor,[38],[39] while to increase its activity, we used the clinically-licensed CFTR potentiator ivacaftor.[40]
FRT cells stably expressing the halide sensor YFP-H148Q/I152L6 were generous gifts of AS Verkman (University of California, San Francisco), while CFBE41o- cells7 stably expressing YFP (YFP-CFBE cells) were a generous gift of LJV Galietta (Telethon Institute for Genetics and Medicine). YFP-FRT cells were cultured as described previously for FRT cells8 except that media contained 10% fetal bovine serum, 2 mM L-glutamine and the selection agent G418 (YFP-FRT cells, 0.5 mg ml-1; WT-CFTR-YFP-FRT cells, 0.75 mg ml-1) or zeocin (F508del-CFTR-YFP-FRT cells, 0.5 mg ml-1). […]
For fluorescence microplate reader studies, cells were seeded in 96-well plates and grown in culture media at 37 °C in a humidified atmosphere with 5% CO2 for 3 – 4 days until 90% confluent. […] For fluorescence microscopy studies, YFP -FRT cells were plated on glass coverslips an d used 4 – 5 days later when cell confluency was 80%.
Fluorescence plate reader assay […]
quenching of YFP fluorescence at 37 °C using a microplate reader following the method of Galietta et al..9 The microplate reader (model: FLUORstar Omega; BMG LABTECH Ltd., Aylesbury, UK) was equipped with a syringe pump and excitation (500 ± 10 nm) and emission (535 ± 15 nm) filters (Chroma Technology GmbH, Olching, Germany). […]
the PBS bathing cells 10 minutes prior to PBS iodide addition, whereas UTP was added to cells with the PBS iodide solution. Fluorescence was measured for 14 seconds; 2 seconds before and 12 seconds after injection of 110 µl PBS iodide solution (137 mM Cl- replaced by I-) into each well (to obtain a final concentration of I- of 100 mM). […]

[3] = target: T3, Ca^2+-activated Cl^– channel (CaCC) (Homo sapiens, UniProt Q5XXA6); experiment: CaCC-mediated anion transport in YFP-CFBE cells; conditions: UTP 1 mM; CaCCinh-A01 10 μM
T3 construct: endogenous in cells; host or cells: CFBE41o- cells stably expressing YFP (YFP-CFBE cells)
T3 sequence (Q5XXA6 1-986): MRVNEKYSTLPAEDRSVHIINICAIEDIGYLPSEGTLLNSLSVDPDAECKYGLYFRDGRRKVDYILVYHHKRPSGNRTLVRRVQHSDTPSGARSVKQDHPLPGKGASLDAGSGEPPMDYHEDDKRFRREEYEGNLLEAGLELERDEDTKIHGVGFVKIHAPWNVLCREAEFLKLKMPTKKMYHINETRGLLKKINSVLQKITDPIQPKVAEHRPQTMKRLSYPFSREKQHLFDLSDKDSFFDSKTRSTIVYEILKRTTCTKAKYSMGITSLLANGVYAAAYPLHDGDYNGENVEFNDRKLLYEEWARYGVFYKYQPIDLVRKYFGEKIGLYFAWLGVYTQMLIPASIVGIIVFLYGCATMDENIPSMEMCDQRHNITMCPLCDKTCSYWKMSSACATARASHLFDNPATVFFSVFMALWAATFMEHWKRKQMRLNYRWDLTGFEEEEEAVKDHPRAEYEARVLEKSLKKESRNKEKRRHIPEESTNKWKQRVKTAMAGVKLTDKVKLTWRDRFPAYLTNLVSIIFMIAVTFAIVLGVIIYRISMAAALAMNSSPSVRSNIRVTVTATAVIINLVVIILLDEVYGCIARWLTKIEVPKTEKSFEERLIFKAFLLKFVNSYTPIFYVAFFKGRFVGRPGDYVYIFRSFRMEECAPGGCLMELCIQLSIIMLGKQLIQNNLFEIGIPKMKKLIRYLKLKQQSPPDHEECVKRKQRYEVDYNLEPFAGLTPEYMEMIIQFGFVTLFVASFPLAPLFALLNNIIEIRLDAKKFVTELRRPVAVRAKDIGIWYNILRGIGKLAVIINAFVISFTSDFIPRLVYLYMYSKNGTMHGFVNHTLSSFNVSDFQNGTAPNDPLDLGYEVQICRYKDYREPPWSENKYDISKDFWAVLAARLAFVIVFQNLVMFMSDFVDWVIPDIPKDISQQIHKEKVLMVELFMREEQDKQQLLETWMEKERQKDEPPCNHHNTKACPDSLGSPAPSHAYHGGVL
Description: (for chemical structure, see ESI Fig. S15 ^†).
the PBS bathing cells 10 minutes prior to PBS iodide addition, whereas UTP was added to cells with the PBS iodide solution. Fluorescence was measured for 14 seconds; 2 seconds before and 12 seconds after injection of 110 l PBS iodide solution (137 mM Cl- replaced by I-) into each well (to obtain a final concentration of I- of 100 mM).
fluorescence microscopy as described previously.10 In brief, YFP-FRT cells were washed 3x with PBS before transfer to a perfusion chamber mounted on the stage of a Leica DM IRB microscope. […] Any anionophore not incorporated into YFP-FRT cell membranes was removed from the chamber by perfusion with PBS when fluorescence measurements commenced. […]
Fluorescence quenching by the anionophore vehicle DMSO was subtracted from each test measurement. […]

T1 sequence (P13569 whole entry): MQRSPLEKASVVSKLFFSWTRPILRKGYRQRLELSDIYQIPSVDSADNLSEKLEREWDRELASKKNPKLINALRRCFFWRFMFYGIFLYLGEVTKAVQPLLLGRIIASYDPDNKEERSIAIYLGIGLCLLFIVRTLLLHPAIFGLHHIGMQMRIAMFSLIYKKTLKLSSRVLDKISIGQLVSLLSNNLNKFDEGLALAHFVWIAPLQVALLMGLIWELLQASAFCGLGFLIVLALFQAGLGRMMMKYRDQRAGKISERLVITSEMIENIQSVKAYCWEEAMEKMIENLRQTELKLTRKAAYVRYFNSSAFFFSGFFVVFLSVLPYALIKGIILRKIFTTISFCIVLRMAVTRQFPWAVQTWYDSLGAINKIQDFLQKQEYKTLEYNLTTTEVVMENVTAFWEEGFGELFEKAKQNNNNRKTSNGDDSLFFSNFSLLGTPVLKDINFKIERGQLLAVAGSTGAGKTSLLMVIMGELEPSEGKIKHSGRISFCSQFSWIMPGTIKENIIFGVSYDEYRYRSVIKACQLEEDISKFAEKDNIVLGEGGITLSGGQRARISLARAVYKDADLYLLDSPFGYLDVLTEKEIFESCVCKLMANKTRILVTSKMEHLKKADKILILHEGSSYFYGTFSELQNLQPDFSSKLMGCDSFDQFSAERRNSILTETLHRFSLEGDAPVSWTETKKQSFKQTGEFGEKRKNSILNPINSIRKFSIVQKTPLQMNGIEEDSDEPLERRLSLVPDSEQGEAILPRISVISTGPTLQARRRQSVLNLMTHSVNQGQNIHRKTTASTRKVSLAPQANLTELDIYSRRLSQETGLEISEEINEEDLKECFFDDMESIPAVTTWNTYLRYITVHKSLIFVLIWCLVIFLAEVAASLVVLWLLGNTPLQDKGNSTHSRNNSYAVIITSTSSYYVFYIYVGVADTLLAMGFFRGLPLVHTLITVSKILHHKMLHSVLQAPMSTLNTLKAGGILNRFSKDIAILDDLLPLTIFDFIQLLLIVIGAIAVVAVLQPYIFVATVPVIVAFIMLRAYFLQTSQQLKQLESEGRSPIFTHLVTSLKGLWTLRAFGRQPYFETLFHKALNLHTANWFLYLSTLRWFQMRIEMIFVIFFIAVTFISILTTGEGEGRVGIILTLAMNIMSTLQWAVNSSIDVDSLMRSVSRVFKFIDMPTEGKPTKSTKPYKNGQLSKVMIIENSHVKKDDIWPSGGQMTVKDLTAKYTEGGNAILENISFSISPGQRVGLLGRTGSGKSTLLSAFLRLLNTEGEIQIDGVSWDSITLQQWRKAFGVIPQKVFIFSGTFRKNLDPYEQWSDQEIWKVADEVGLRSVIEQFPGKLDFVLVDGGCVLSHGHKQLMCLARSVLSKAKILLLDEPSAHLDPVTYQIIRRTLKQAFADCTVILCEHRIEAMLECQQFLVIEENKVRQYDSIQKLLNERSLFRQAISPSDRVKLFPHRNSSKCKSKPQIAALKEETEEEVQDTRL
T2 sequence (P13569 with tags, fused parts or gaps DEL508-508): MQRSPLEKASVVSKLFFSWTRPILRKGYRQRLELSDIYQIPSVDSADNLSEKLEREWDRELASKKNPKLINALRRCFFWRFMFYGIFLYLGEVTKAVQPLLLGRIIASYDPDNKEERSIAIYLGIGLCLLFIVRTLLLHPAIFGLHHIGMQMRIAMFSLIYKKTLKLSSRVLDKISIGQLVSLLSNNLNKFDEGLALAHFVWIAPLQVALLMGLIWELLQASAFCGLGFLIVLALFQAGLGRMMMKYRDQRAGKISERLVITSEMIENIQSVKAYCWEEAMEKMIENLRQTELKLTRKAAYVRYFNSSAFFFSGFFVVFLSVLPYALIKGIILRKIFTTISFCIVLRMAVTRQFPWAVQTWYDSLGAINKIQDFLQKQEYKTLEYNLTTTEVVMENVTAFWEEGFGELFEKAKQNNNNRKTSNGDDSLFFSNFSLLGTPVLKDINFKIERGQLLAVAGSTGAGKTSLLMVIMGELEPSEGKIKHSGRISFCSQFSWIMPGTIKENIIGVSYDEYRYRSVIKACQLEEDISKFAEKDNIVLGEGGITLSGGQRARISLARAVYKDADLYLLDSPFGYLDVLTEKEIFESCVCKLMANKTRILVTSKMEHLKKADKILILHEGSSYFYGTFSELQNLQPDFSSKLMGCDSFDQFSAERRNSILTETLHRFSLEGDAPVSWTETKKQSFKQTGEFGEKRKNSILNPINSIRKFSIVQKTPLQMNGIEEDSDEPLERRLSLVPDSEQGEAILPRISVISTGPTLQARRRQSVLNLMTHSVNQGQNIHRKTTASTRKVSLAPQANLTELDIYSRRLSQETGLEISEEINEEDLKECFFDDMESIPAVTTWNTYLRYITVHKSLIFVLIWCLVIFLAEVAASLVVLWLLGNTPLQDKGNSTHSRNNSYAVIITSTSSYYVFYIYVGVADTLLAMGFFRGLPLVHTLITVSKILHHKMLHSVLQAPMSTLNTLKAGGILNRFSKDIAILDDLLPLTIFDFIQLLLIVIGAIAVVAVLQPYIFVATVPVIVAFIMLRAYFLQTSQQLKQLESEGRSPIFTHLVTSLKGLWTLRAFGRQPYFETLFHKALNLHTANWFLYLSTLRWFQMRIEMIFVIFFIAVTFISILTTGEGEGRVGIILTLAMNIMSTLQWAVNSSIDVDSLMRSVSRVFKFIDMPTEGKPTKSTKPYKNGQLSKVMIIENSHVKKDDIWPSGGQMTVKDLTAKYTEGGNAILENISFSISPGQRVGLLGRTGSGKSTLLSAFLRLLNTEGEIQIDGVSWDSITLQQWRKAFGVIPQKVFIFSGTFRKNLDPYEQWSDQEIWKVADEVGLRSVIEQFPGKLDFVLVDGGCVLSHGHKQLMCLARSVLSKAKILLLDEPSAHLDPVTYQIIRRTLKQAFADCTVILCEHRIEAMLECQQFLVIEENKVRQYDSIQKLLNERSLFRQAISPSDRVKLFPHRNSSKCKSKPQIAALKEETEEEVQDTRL

effect on anion transport in WT-CFTR-YFP-FRT cells [1]	anion transport in control F508del-CFTR-YFP-FRT cells [2]	effect on CaCC activity [3]	SMILES
robustly stimulated anion transport	little effect		C=C[C@@]1(C)CC(=O)[C@]2(O)[C@@]3(C)[C@@H](O)CCC(C)(C)[C@@H]3[C@H](O)[C@H](OC(C)=O)[C@@]2(C)O1 [forskolin]
inhibited, albeit incompletely			O=C(O)c1ccc(/C=C2\SC(=S)N(c3cccc(C(F)(F)F)c3)C2=O)cc1 [CFTRinh-172]
		activated little CaCC activity	O=c1ccn([C@@H]2O[C@H](COP(=O)(O)OP(=O)(O)OP(=O)(O)O)[C@@H](O)[C@H]2O)c(=O)[nH]1 [UTP]
